Measured values as given in patent publication US9034882B2, “Inhibitors of human immunodeficiency virus replication” (priority 2012, dated 2015).
Read-outs that look alike come from different tables or passages of the source.

Tested on: recombinant NL-Rluc virus
Test: Inhibition of HIV replication (NL-RLuc luciferase reporter virus in MT-2 cells)
Type: cell-based
Settings: Human immunodeficiency virus 1, MT2, 120 h

Row | Compound | EC50 (read-out: Activity) [µM] | EC50 (read-out: EC50 μM) [µM]
1 | Cc1nc2cc(-c3ccccc3)nn2c(N2CCCCC2)c1C(OC(C)(C)C)C(=O)O (stereo not shown) [Example 2, 2-(tert-butoxy)-2-(7-(lpiperidin-1-yl)-5-methyl-2-phenylpyrazolo[1,5a]pyrimidin-6-yl)acetic acid] | > 1 | 5
2 | Cc1nc2nc(-c3ccccc3)nn2c(N2CCCC(C)(C)C2)c1C(OC(C)(C)C)C(=O)O (stereo not shown) [Example 41, 2-(tert-Butoxy)-2-(7-(3,3-dimethylpiperidin-1-yl)-5-methyl-2-phenyl-[1,2,4]triazolo[1,5-a]pyrimidin-6-yl)acetic acid] | < 0.1 | 
3 | Cc1nc2cc(-c3ccccc3)nn2c(N2CCCC(C)C2)c1C(OC(C)(C)C)C(=O)O (stereo not shown) [Example 10] | > 1 | 
4 | Cc1nc2cc(-c3ccccc3)nn2c(N2CCC(O)CC2)c1C(OC(C)(C)C)C(=O)O (stereo not shown) [Example 15] | > 1 | 
5 | Cc1nc2cc(-c3ccccc3)nn2c(N2CCC(C)CC2)c1C(OC(C)(C)C)C(=O)O (stereo not shown) [Example 8, 2-(tert-butoxy)-2-(5-methyl-7-(4-methylpiperidin-1-yl)-2-phenylpyrazolo[1,5a]pyrimidin-6-yl)acetic acid] | 0.1 to 1 | 0.72
6 | Cc1nc2cc(-c3ccccc3)nn2c(N2CCc3ccccc3C2)c1C(OC(C)(C)C)C(=O)O (stereo not shown) [Example 3, 2-(tert-butoxy)-2-(7-(3,4-dijydroisoquinolin-2(1H)-yl)-5-methyl-2-phenylpyrazolo[1,5a]pyrimidin-6-yl)acetic acid] | > 1 | 
7 | Cc1nc2cc(-c3cccc(-c4ccccc4)c3)nn2c(N2CCOC(C)(C)C2)c1[C@H](OC(C)(C)C)C(=O)O [Example 49, (S)-2-(2-([1,1′-Biphenyl]-3-yl)-7-(2,2-dimethylmorpholino)-5-methylpyrazolo[1,5-a]pyrimidin-6-yl)-2-(tert-butoxy)acetic acid] | 0.1 to 1 | 
8 | COC1CCN(c2c(C(OC(C)(C)C)C(=O)O)c(C)nc3cc(-c4ccccc4)nn23)CC1 (stereo not shown) [Example 11] | > 1 | 
9 | Cc1nc2cc(-c3cccc(-c4ccccc4)c3)nn2c(N2CCC3(C)CC3C2)c1[C@H](OC(C)(C)C)C(=O)O (stereo partly drawn) [Example 61, (2S)-2-(2-([1,1′-Biphenyl]-3-yl)-5-methyl-7-(6-methyl-3-azabicyclo[4.1.0]heptan-3-yl)pyrazolo[1,5-a]pyrimidin-6-yl)-2-(tert-butoxy)acetic acid] | 0.1 to 1 | 
10 | Cc1nc2cc(-c3ccccc3)nn2c(N2CCCCC2C)c1C(OC(C)(C)C)C(=O)O (stereo not shown) [Example 19] | 0.1 to 1 | 
11 | Cc1nc2cc(-c3ccc4c(c3)CCCC4)nn2c(N2CCC(C)CC2)c1[C@H](OC(C)(C)C)C(=O)O [Example 34, (S)-2-(tert-Butoxy)-2-(5-methyl-7-(4-methylpiperidin-1-yl)-2-(5,6,7,8-tetrahydronaphthalen-2-yl)pyrazolo[1,5-a]pyrimidin-6-yl)acetic acid] | 0.1 to 1 | 
12 | COc1ccccc1-c1cccc(-c2cc3nc(C)c([C@H](OC(C)(C)C)C(=O)O)c(N4CCC(C)(C)CC4)n3n2)c1 [Example 59, (S)-2-(tert-Butoxy)-2-(7-(4,4-dimethylpiperidin-1-yl)-2-(2′-methoxy-[1,1′-biphenyl]-3-yl)-5-methylpyrazolo[1,5-a]pyrimidin-6-yl)acetic acid] | < 0.1 | 0.015
13 | Cc1nc2cc(-c3cccc(-c4ccccc4)c3)nn2c(N2[C@@H]3CC[C@H]2COC3)c1[C@H](OC(C)(C)C)C(=O)O [Example 45, (S)-2-(2-([1,1′-Biphenyl]-3-yl)-7-((1R,5S)-3-oxa-8-azabicyclo[3.2.1]octan-8-yl)-5-methylpyrazolo[1,5-a]pyrimidin-6-yl)-2-(tert-butoxy)acetic acid] | > 1 | 3.14
14 | Cc1nc2cc(-c3cccc(-c4ccccc4F)c3)nn2c(N2CCC(C)(C)CC2)c1[C@H](OC(C)(C)C)C(=O)O [Example 52, (S)-2-(tert-Butoxy)-2-(7-(4,4-dimethylpiperidin-1-yl)-2-(2′-fluoro-[1,1′-biphenyl]-3-yl)-5-methylpyrazolo[1,5-a]pyrimidin-6-yl)acetic acid] | < 0.1 | 0.05
